This is an account of results in patent KR20150001353A, “Fms 키나아제 저해 활성을 갖는 피리미딘 유도체” (한미약품 주식회사, priority 2013, dated 2015).

The target in assay [1] is T1, recombinant human FMS kinase (재조합 인간 FMS 키나아제) (Homo sapiens, UniProt P07333).
T1 construct: purchased Invitrogen pv3249
The experiment in a line: FMS kinase inhibitory activity evaluation (Test Example 1; FRET, Z'-Lyte kinase assay-Tyr 1 peptide kit). The following applies: 0.3 µg/mL FMS, 150 μM ATP, room temperature, 1 h. Format: biochemical.

Assay [2] relates to M-NFS-60 cell line (M-NFS-60 세포주). In words: M-NFS-60 cell line evaluation (Test Example 2; MTT, CellTiter 96 Assay). Format: cell-based. The following applies: recombinant M-CSF 20 ng/mL, 5% FBS, compound 10 μM to 0.1 nM, 590 nm.

The IC50 is the midpoint of a concentration-inhibition curve.

T1 sequence (P07333 20-972): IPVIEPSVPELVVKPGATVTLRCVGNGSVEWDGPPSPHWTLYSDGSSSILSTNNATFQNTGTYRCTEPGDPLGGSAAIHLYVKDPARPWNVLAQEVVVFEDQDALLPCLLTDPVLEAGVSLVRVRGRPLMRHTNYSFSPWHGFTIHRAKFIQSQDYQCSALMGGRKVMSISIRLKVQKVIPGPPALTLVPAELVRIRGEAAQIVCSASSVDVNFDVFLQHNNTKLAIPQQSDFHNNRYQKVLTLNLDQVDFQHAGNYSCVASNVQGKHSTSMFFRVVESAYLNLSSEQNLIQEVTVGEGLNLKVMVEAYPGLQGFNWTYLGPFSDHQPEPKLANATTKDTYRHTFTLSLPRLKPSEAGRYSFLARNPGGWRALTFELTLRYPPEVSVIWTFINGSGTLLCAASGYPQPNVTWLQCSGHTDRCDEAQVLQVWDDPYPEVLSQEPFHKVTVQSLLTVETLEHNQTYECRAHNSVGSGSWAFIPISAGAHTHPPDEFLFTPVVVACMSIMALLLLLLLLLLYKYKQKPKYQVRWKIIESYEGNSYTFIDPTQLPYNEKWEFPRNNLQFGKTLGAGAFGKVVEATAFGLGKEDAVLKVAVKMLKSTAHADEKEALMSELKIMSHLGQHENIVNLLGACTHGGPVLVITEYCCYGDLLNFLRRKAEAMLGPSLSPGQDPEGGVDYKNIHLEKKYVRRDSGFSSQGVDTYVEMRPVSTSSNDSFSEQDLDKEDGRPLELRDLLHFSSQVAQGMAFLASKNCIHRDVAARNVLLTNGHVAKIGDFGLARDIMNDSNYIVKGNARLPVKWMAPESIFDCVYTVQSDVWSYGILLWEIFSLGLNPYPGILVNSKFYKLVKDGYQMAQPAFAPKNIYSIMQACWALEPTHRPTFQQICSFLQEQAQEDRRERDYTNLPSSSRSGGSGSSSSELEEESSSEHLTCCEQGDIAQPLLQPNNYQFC

As to `COc1ccc(CNc2cc(N(C)C(=O)Nc3cccc4c3c(C)nn4Cc3cccc(F)n3)ncn2)c(OC)c1` [실시예 9, 1-(6-(2,4-디메톡시벤질아미노)피리미딘-4-일)-3-(1-((6-플루오로피리딘-2-일)메틸)-3-메틸-1H-인다졸-4-일)-1-메틸우레아], in assay [1], the IC50 came to 65 nM. `COc1cccc(Cn2nc(C)c3c(NC(=O)N(C)c4cc(N)ncn4)cccc32)c1` [실시예 18, 1-(6-아미노피리미딘-4-일)-3-(1-(3-메톡시벤질)-3-메틸-1H-인다졸-4-일)-1-메틸우레아]: the IC50 in assay [1] was 14 nM; in assay [2], 201 nM.
